Measured values from patent US6620403B2, “In vivo chemosensitivity screen for human tumors” (priority 2000, dated 2003).
Where “and” joins values, the source holds several entries; their conditions need not be identical. Equal entries are not always repeated.

Legend:
[1] = test system: human NSCLC heterotransplants; assay: Paclitaxel treatment and tumor response of human NSCLC heterotransplants grown subcutaneously in nude mice; assay type: in vivo
[2] = test system: human NSCLC heterotransplants; assay: as above; assay type: in vivo; remark: listed apart in the source
Description: The in vivo sensitivity to paclitaxel was studied in 34 successfully grown heterotransplants. The paclitaxel was intravenously administered to each mouse at a dosage rate of 60 mg/kg every 3 weeks. Treatment was initiated when the tumors reached a size of about 5 mm in diameter and strict standard clinical criteria (>50% tumor shrinkage) were used to define the tumor response. The heterotransplants were morphologically very similar to the original tumors. The response rate to paclitaxel was 21% (95% Cl 9-38%) which is equivalent to that reported in Phase II studies in patients with advanced NSCLC treated with paclitaxel alone. Tumor heterotransplants are thus proposed as relevant models to evaluate new potential anti-tumor agents for treatment of different cancers and to predict clinical response in individual patients. It is noted that the type of tumor utilized for evaluating chemosensitivity to anti-tumor agents comprises a range of cancers including, but not limited to, colon, head and neck, brain, melanoma, sarcoma, breast, ovarian, prostate, kidney and stomach cancers.
The fresh tumor samples were cut into 2-3 mm^3 pieces in sterile saline. Three or four pieces of non-necrotic tissue were injected subcutaneously into the lower back and anterior chest of 6 to 8 week old female Nu/Nu mice using a biomedical stainless steel implant needle and maintained under standardized conventional conditions. Animals transplanted with NSCLC tumors were checked for tumor growth over a 36 week period. Tumor formation measuring at least 5 mm in diameter was considered a positive take. Tumor formation was confirmed histologically in all cases. Temporary growth was defined as tumor formation followed by spontaneous regression before reaching a diameter of 5 mm. All other incidences were considered no growth.
The therapeutic experiments were designed as a standard Phase II clinical study with a target response rate of 20%, the only difference being that the tumor response was assessed as the average of two animals rather than in a single subject as in the case of a human Phase II trial.
The tumor grown after implantation from human to mouse was resected and cut into pieces following the same procedure used for the original tumor sample as previously described above, and transplanted subcutaneously into several animals. Tumors from the first mouse to mouse passage were allowed to grow until reaching 5 mm in diameter, at which time the animals were split into two groups: 1) control group—no treatment; and 2) treated group. The treated group was administered 60 mg/kg paclitaxel intravenously as a bolus in the tail vein. Tumor measurements were performed twice a week and the tumor volume was calculated using the formula, a×b^2/2 (a=longest diameter and b=shortest diameter). Partial tumor response was defined as an average reduction in the tumor volume of at least 50% in the animals of the treated group compared to the tumor volume measured in animals of the control group. Complete tumor response was defined as complete disappearance of the palpable tumor in both animals of the […].

[3] = test system: NSCLC; details: single agent, cited from earlier work
[4] = First mouse to mouse passage, after second dose (day 21), 16 heterotransplants, number of responses (%)

CC(=O)O[C@H]1C(=O)[C@@]2(C)[C@H]([C@H](OC(=O)c3ccccc3)[C@]3(O)C[C@H](OC(=O)[C@H](O)[C@@H](NC(=O)c4ccccc4)c4ccccc4)C(C)=C1C3(C)C)[C@]1(OC(C)=O)CO[C@@H]1C[C@@H]2O [paclitaxel]
response rate ([1]; 21 heterotransplants, second mouse to mouse passage, 95% CI 11%-52%): 29% | Tumor Response/(%) Partial ([1]; Second passage, 21 heterotransplants tested on both first and second mouse to mouse passages, number of responses (%)): 6 (29%) | non-responders to one dose achieving a partial response after the second dose ([2]; 12 heterotransplants that did not respond with one dose): None | partial responses after one dose ([2]; 16 heterotransplants given two doses, 4/16, 95% CI 7%-52%): 25% | partial responses converted into complete response after two doses ([2]; 16 heterotransplants, second dose on day 21, number out of 4 partial responses): Three | effect of second dose on overall response rate ([2]; 16 heterotransplants, second dose on day 21 versus single dose): did not change the overall response rate | response rate ([2]; 21 heterotransplants, first mouse to mouse passage, 95% CI 8%-47%): 24% | overall response rate ([2]; 34 heterotransplants, first mouse to mouse passage, one single dose 60 mg/kg i.v., 95% CI 9-38%): 21% | Tumor Response/(%) Complete ([2]; Adenocarcinoma, first mouse to mouse passage, 11 heterotransplants, single dose 60 mg/kg i.v.): 0 | Tumor Response/(%) Partial ([2]; Adenocarcinoma, first mouse to mouse passage, 11 heterotransplants, single dose 60 mg/kg i.v., number of responses (%)): 1 (9%) | Tumor Response/(%) Complete ([2]; First mouse to mouse passage, after first dose, 16 heterotransplants): 0 | Tumor Response/(%) Partial ([2]; First mouse to mouse passage, after first dose, 16 heterotransplants, number of responses (%)): 4 (24%) | Tumor Response/(%) Complete [2, 4]: 3 (18%) | Tumor Response/(%) Partial [2, 4]: 1 (6%) | Tumor Response/(%) Complete ([2]; First passage, 21 heterotransplants tested on both first and second mouse to mouse passages): 0 | Tumor Response/(%) Partial ([2]; First passage, 21 heterotransplants tested on both first and second mouse to mouse passages, number of responses (%)): 5 (24%) | Tumor Response/(%) Partial ([2]; Neuroendocrine carcinoma, first mouse to mouse passage, 1 heterotransplant, single dose 60 mg/kg i.v., number of responses): 1 | Tumor Response/(%) Complete ([2]; Second passage, 21 heterotransplants tested on both first and second mouse to mouse passages): 0 | Tumor Response/(%) Complete ([2]; Squamous carcinoma, first mouse to mouse passage, 20 heterotransplants, single dose 60 mg/kg i.v.): 0 | Tumor Response/(%) Partial ([2]; Squamous carcinoma, first mouse to mouse passage, 20 heterotransplants, single dose 60 mg/kg i.v., number of responses (%)): 4 (20%) | Tumor Response/(%) Complete ([2]; TOTAL, first mouse to mouse passage, 34 heterotransplants, single dose 60 mg/kg i.v., number of responses (%)): 0 (0%) | Tumor Response/(%) Partial ([2]; TOTAL, first mouse to mouse passage, 34 heterotransplants, single dose 60 mg/kg i.v., number of responses (%), 60 mg/kg): 7 | Tumor Response/(%) Partial ([2]; TOTAL, first mouse to mouse passage, 34 heterotransplants, single dose 60 mg/kg i.v., number of responses (%), listed as Paclitaxel, 60 mg/kg): 7 (21%) | Tumor Response/(%) Partial ([2]; Undifferentiated carcinoma, first mouse to mouse passage, 2 heterotransplants, single dose 60 mg/kg i.v., number of responses): 1 | response rate in the individual Phase II studies ([3]; each of four Phase II studies, previously untreated NSCLC patients): 10% and 21% and 24% and 38% | reported overall response rate ([3]; four Phase II studies, total of 160 previously untreated NSCLC patients): 24%
